System: A498 complex spheroids with HUVEC/MSC, growth
Experiment: Anticancer human tumor A498 cell line growth inhibition [AhR];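 note: seven day exposure starting three days after spheroid seeding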;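 for viability, T/C: luminescence signal used as a surrogate for viable cells; luminescence viability scaled so 100% equals DMSO vehicle wells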
Settings: for IC50: curve of first compound; for viability, T/C: stronger effect = lower value
Summary of the method: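 Agents were dosed in half-log steps down from roughly clinical Cmax, or from 10 microM where Cmax was unknown, alone and with AhR antagonists. Read-out: percent test/control growth of tumor spheroids containing HUVEC and MSC stromal cells.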

[1] = second compound 0.1 µM, first compound 0.00949 µM
[2] = second compound 0.1 µM, first compound 0.03 µM
[3] = second compound 0.1 µM, first compound 0.0949 µM
[4] = second compound 0.1 µM, first compound 0.3 µM
[5] = second compound 0.316 µM, first compound 0.00949 µM
[6] = second compound 0.316 µM, first compound 0.03 µM
[7] = second compound 0.316 µM, first compound 0.0949 µM
[8] = second compound 0.316 µM, first compound 0.3 µM
[9] = second compound 1 µM, first compound 0.00949 µM
[10] = second compound 1 µM, first compound 0.03 µM
[11] = second compound 1 µM, first compound 0.0949 µM
[12] = second compound 1 µM, first compound 0.3 µM
[13] = second compound 3.16 µM, first compound 0.00949 µM
[14] = second compound 3.16 µM, first compound 0.03 µM
[15] = second compound 3.16 µM, first compound 0.0949 µM
[16] = second compound 3.16 µM, first compound 0.3 µM
[17] = second compound 10 µM, first compound 0.00949 µM
[18] = second compound 10 µM, first compound 0.03 µM
[19] = second compound 10 µM, first compound 0.0949 µM
[20] = second compound 10 µM, first compound 0.3 µM

CC1COCCN1c1cc(C2(S(C)(=N)=O)CC2)nc(-c2ccnc3[nH]ccc23)n1 (stereo not given) + CC(CO)NC(=O)c1cc(-c2ccc(Cl)cc2)nn(-c2cnn(C)c2)c1=O
IC50 (second compound 0.1 µM): 1770 nM | IC50 (second compound 0.316 µM): 1640 nM | IC50 (second compound 1 µM): 1280 nM | IC50 (second compound 3.16 µM): 1190 nM | IC50 (second compound 10 µM): 784 nM | viability, T/C (second compound 0.1 µM, first compound 0.0316 µM): 96.6% | viability, T/C (second compound 0.1 µM, first compound 0.1 µM): 94.9% | viability, T/C (second compound 0.1 µM, first compound 0.316 µM): 85.2% | viability, T/C (second compound 0.1 µM, first compound 1 µM): 66% | viability, T/C (second compound 0.1 µM, first compound 3.16 µM): 34.2% | viability, T/C (second compound 0.1 µM, first compound 10 µM): 18.2% | viability, T/C (second compound 0.316 µM, first compound 0.0316 µM): 88.7% | viability, T/C (second compound 0.316 µM, first compound 0.1 µM): 89.6% | viability, T/C (second compound 0.316 µM, first compound 0.316 µM): 84% | viability, T/C (second compound 0.316 µM, first compound 1 µM): 65.1% | viability, T/C (second compound 0.316 µM, first compound 3.16 µM): 30.2% | viability, T/C (second compound 0.316 µM, first compound 10 µM): 19.7% | viability, T/C (second compound 1 µM, first compound 0.0316 µM): 84.3% | viability, T/C (second compound 1 µM, first compound 0.1 µM): 86.8% | viability, T/C (second compound 1 µM, first compound 0.316 µM): 87% | viability, T/C (second compound 1 µM, first compound 1 µM): 53.5% | viability, T/C (second compound 1 µM, first compound 3.16 µM): 30.6% | viability, T/C (second compound 1 µM, first compound 10 µM): 17.1% | viability, T/C (second compound 3.16 µM, first compound 0.0316 µM): 80.6% | viability, T/C (second compound 3.16 µM, first compound 0.1 µM): 81.8% | viability, T/C (second compound 3.16 µM, first compound 0.316 µM): 78.5% | viability, T/C (second compound 3.16 µM, first compound 1 µM): 52.1% | viability, T/C (second compound 3.16 µM, first compound 3.16 µM): 29.1% | viability, T/C (second compound 3.16 µM, first compound 10 µM): 16.5% | viability, T/C (second compound 10 µM, first compound 0.0316 µM): 70.1% | viability, T/C (second compound 10 µM, first compound 0.1 µM): 65.7% | viability, T/C (second compound 10 µM, first compound 0.316 µM): 62.8% | viability, T/C (second compound 10 µM, first compound 1 µM): 46.9% | viability, T/C (second compound 10 µM, first compound 3.16 µM): 25.8% | viability, T/C (second compound 10 µM, first compound 10 µM): 17.7%

Nc1ncn(C2CC(O)C(CO)S2)c(=O)n1 (stereo not given) + CC(CO)NC(=O)c1cc(-c2ccc(Cl)cc2)nn(-c2cnn(C)c2)c1=O
IC50 (second compound 0.1 µM): > 300 nM | IC50 (second compound 0.316 µM): > 300 nM | IC50 (second compound 1 µM): > 300 nM | IC50 (second compound 3.16 µM): > 300 nM | IC50 (second compound 10 µM): > 300 nM | viability, T/C (second compound 0.1 µM, first compound 0.000949 µM): 98% | viability, T/C (second compound 0.1 µM, first compound 0.003 µM): 101% | viability, T/C [1]: 96.3% | viability, T/C [2]: 93.8% | viability, T/C [3]: 83.6% | viability, T/C [4]: 68.8% | viability, T/C (second compound 0.316 µM, first compound 0.000949 µM): 93% | viability, T/C (second compound 0.316 µM, first compound 0.003 µM): 109% | viability, T/C [5]: 95.5% | viability, T/C [6]: 86% | viability, T/C [7]: 83.4% | viability, T/C [8]: 72.1% | viability, T/C (second compound 1 µM, first compound 0.000949 µM): 96.5% | viability, T/C (second compound 1 µM, first compound 0.003 µM): 99% | viability, T/C [9]: 98.2% | viability, T/C [10]: 92.5% | viability, T/C [11]: 87.4% | viability, T/C [12]: 70.3% | viability, T/C (second compound 3.16 µM, first compound 0.000949 µM): 87.5% | viability, T/C (second compound 3.16 µM, first compound 0.003 µM): 90.9% | viability, T/C [13]: 105% | viability, T/C [14]: 76.6% | viability, T/C [15]: 69.7% | viability, T/C [16]: 70.6% | viability, T/C (second compound 10 µM, first compound 0.000949 µM): 74.9% | viability, T/C (second compound 10 µM, first compound 0.003 µM): 78.3% | viability, T/C [17]: 78.3% | viability, T/C [18]: 71.9% | viability, T/C [19]: 65% | viability, T/C [20]: 59.3%

O=C(C=Cn1cnc(-c2cc(C(F)(F)F)cc(C(F)(F)F)c2)n1)NNc1cnccn1 + CC(CO)NC(=O)c1cc(-c2ccc(Cl)cc2)nn(-c2cnn(C)c2)c1=O
IC50 (second compound 0.1 µM): 58.5 nM | IC50 (second compound 0.316 µM): 51.6 nM | IC50 (second compound 1 µM): 45.8 nM | IC50 (second compound 3.16 µM): 32.7 nM | IC50 (second compound 10 µM): 9.75 nM | viability, T/C [1]: 72.7% | viability, T/C [2]: 69% | viability, T/C [3]: 36.2% | viability, T/C [4]: 23.2% | viability, T/C (second compound 0.1 µM, first compound 0.949 µM): 22.3% | viability, T/C (second compound 0.1 µM, first compound 3 µM): 17.8% | viability, T/C [5]: 74.8% | viability, T/C [6]: 62.7% | viability, T/C [7]: 35.4% | viability, T/C [8]: 23.1% | viability, T/C (second compound 0.316 µM, first compound 0.949 µM): 17.9% | viability, T/C (second compound 0.316 µM, first compound 3 µM): 14.7% | viability, T/C [9]: 67.2% | viability, T/C [10]: 58.8% | viability, T/C [11]: 35.3% | viability, T/C [12]: 23.1% | viability, T/C (second compound 1 µM, first compound 0.949 µM): 18.5% | viability, T/C (second compound 1 µM, first compound 3 µM): 16.7% | viability, T/C [13]: 61.3% | viability, T/C [14]: 51.4% | viability, T/C [15]: 32.1% | viability, T/C [16]: 20.7% | viability, T/C (second compound 3.16 µM, first compound 0.949 µM): 15.7% | viability, T/C (second compound 3.16 µM, first compound 3 µM): 18.4% | viability, T/C [17]: 49.9% | viability, T/C [18]: 46.5% | viability, T/C [19]: 31.2% | viability, T/C [20]: 20.9% | viability, T/C (second compound 10 µM, first compound 0.949 µM): 18.5% | viability, T/C (second compound 10 µM, first compound 3 µM): 17.4%
